Experiments:
[1] = system: normal human epidermal melanocytes (NHEM); test: Synthesis of melanin in melanocytes stimulated by L-tyrosine; assay type: cell-based; conditions: L-tyrosine 1 mM, 10 days, tested at 5 μg/ml
Protocol: The depigmentation effect potential of the Uchuva extract has been researched in a model of normal human epidermal melanocytes (NHEM). The effect of the Uchuva extract on the synthesis of melanin has been evaluated after ten incubation days under conditions stimulated by L-tyrosine. In this test, the reference inhibitory molecule is lipoic acid. Its action mechanism calls for an inhibition of the expression of the MITF transcription factor (microphthalmia-associated transcription factor). This transcription factor is the major regulator of the expression of tyrosinase and its inhibition results in the reduction of the expression of tyrosinase, enzyme involved in the melanin synthesis. The melanocytes have been sown in 24 wells plate and cultivated in the culture medium for 24 hours. […] After incubation, the melanin has been extracted by lysis of the cells with a solution of NaOH 0.5 N. The optical density (OD) of the samples has been measured at 405 nm, then the quantity of melanin has been determined in comparison with a range of exogenous melanin (melanin curve including standards from 0.39 to 100 μg/ml). […] After dissociation of the cells and solubilisation of the formazan by addition of DMSO, the optical density (OD), which represents the number of living cells and their metabolic activity, has been measured with a 540 nm microplate reader (VERSAmax, Molecular Devices).

[2] = system: coding genes for differentiation proteins of the keratinocyte in normal human epidermal keratinocytes (NHEK); test: Transcriptomic analysis (Affymetrix U219 chip) of treated keratinocytes; assay type: cell-based; conditions: 0.8 μg/ml; for expression of coding genes for differentiation proteins of the keratinocyte: KRT1, IVL, DSG1, DSC1, SPRR2A, SPRR2E, SPRR1A, SPRR2D, CALML5, SBSN and KRTDAP: 4 or 24 hours; for effect on the differentiation of the keratinocytes: deduced from gene expression
Protocol: (§1) The effects of fractions I, II and […] have been researched on by transcriptomic analysis on models of normal human epidermal keratinocytes and human dermal fibroblasts. This global transcript expression analysis has been carried out after 4 to 24 hours of incubation by using the Affymetrix GeneAtlas™ platform and the U219 “full human transcriptome” chip containing 36,000 transcripts and variants.
(§2) • Cellular type: Normal human epidermal keratinocytes (NHEK) • Culture conditions: 37° C., 5% CO2 • Culture medium: Keratinocyte-SFM supplemented with Epidermal Growth Factor (EGF) 0.25 ng/ml Pituitary Extract (PE) 25 μg/ml Gentamycin 25 μg/ml • Test medium: Keratinocyte-SFM supplemented with Gentamycin 25 μg/ml Normal Human Dermal Fibroblasts (NHDF) • Cellular type: Normal human dermal fibroblasts (NHDF), • Culture conditions: 37° C., 5% CO2 • Culture medium: DMEM supplemented with • L-glutamine 2 mM • Penicillin 50 U/ml—Streptomycin 50 μg/ml • Calf foetal serum (CFS) 10% • Test medium: DMEM supplemented with • L-glutamine 2 mM • Penicillin 50 U/ml—Streptomycin 50 μg/ml • CFS 1% 2. Tested Compounds
The cells have been introduced and cultivated in the culture medium for 24 hours and then incubated in their test medium for another 24 hours. Then, the medium has been replaced by the test medium containing or not containing (control) the test compounds and the cells have been incubated for 4 or 24 hours. All the conditions have been completed in n=3.
At the end of the incubation, the culture supernatants have been removed and the cell layers have been rinsed with a PBS solution. The plates have been immediately dry frozen at −80° C.
The total RNA of each sample have been extracted using TriPure Isolation Reagent® as per the protocol recommended by the supplier. The quantity and quality of the RNA have been evaluated by capillary electrophoresis (Bioanalyzer 2100, Agilent).
The amplification of the RNA and the synthesis of the biotinylated RNA analogues (RNAa) have been carried out using the “GeneChip 3'IVT Express” kit (Affymetrix®). The single-strand complementary DNA (cDNA) have been synthesised by reverse transcription of the total RNA in the presence of oligo(dT). By action of a DNA polymerase, a double-stranded cDNA (ds DNA) has been synthesised. Biotinylated RNA have then been synthesised from the cDNA and in the presence of biotinylated ribonucleotide analogues. After a purification stage on magnetic beads, which enables to remove salts, enzymes and free nucleotides, the biotinylated RNA have been hydrolysed into fragments from 35 to 200 nucleotides with a peak at 100-120 nucleotides (fragmented targets). […]

Collagen IV = test: Expression of Collagen IV in fibroblasts by immunocytology, fluorescence scoring; assay type: cell-based, human; conditions: positive control element, 48 hours
Protocol: The two concentrations of 4.10-5% and 8.10-5% of the Uchuva extract have been tested.
The cells are introduced on D0, in Millicell 8 wells slides, at a rate of 4.103 cells per ml in 400 μl of complete medium. They are treated on D1 for 48 hours with culture in a complete medium. The concentrations of the active to be tested are expressed in % of the extract. The stock solution of the extract has been prepared in DMSO with 20% concentration (w/v). The first dilution has been made to 1/1000th. The following dilutions have been made while maintaining the final DMSO concentration at 0.1%. After 48 hours, the cells are fixed by an alcohol/acid mixture. Then, the cells are marked using an anti-collagen IV antibody (Rockland) diluted in PBS+BSA/tween to 1/50 for 1 hour. The slides are then rinsed twice by PBS. The revelation of the specific marking is done using an FITC coupled secondary antibody (Santa-Cruz) diluted in PBS+BSA/tween to 1/100 for 1 hour. The slides are then rinsed twice by PBS and put between the slide and the cover glass using the RotiMount Fluocare+DAPI (Roth) mounting fluid.
Photos in green and blue are taken using a DP72 camera (Olympus, Japan) connected to a BX-60 epifluorescence microscope (Olympus, Japan).
The photos have been observed by two readers and a scoring of the intensity of fluorescence has done on a linear scale from 0 (no marking) to 4 (very high marking). […]

[3] = system: coding gene for fibrillin 1 (FBN1) in normal human dermal fibroblasts (NHDF); test: Transcriptomic analysis (Affymetrix U219 chip) of treated fibroblasts; assay type: cell-based; conditions: 0.8 μg/ml
Protocol: as §1
as §2, with “Compounds […]” for “Compounds”
The total RNA of each sample have been extracted using TriPure Isolation Reagent® as per the protocol recommended by the supplier. The quantity and quality of the RNA have been evaluated by capillary electrophoresis (Bioanalyzer 2100, Agilent). […]

**Q.** How did the “inhibition of the synthesis of melanin” value [1] turn out when O=C(O)CCCC[C@@H]1CCSS1 (racemic) [lipoic acid] was run?
**A.** Its value is 108%.

**Q.** Which “expression of coding genes for differentiation proteins of the keratinocyte: KRT1, IVL, DSG1, DSC1, SPRR2A, SPRR2E, SPRR1A, SPRR2D, CALML5, SBSN and KRTDAP” value [2] does the source give for CCCCCCCCCC(=O)O[C@H]1[C@@H](O[C@]2(CO)O[C@H](CO)[C@@H](O)[C@@H]2OC(=O)C(C)C)O[C@H](CO)[C@@H](OC(=O)C(C)C)[C@@H]1OC(=O)C(C)C [Fraction I, 3-O-(2-methyl-1-oxopropyl)-β-D-fructofuranosyl (1→2)-3,4-bis(2-methylpropanoate)-2-decanoate-α-D-glucopyranoside] here?
**A.** The value was “expression inhibitions”.

**Q.** What about the “effect on the differentiation of the keratinocytes” value [2] of the same molecule?
**A.** Its value is “anti differentiating effect”.

**Q.** With C[C@H](O)[C@H](O)[C@@H](O)[C@@H](O)C=O [rhamnose] as the molecule, how does the “increase in expression of Collagen IV, amplitude compared with the Uchuva extract” value (Collagen IV) read?
**A.** Its value is “comparable”.

**Q.** For CCCCCCCCCC(=O)O[C@H]1[C@@H](O[C@]2(CO)O[C@H](CO)[C@@H](O)[C@@H]2OC(=O)CC(C)C)O[C@H](CO)[C@@H](OC(=O)C(C)C)[C@@H]1OC(=O)C(C)C [Fraction II, 3-O-(3-methyl-1-oxobutyl)-β-D-fructofuranosyl (1→2)-3,4-bis(2-methylpropanoate)-2-decanoate-α-D-glucopyranoside], which “expression of coding genes for differentiation proteins of the keratinocyte: KRT1, IVL, DSG1, DSC1, SPRR2A, SPRR2E, SPRR1A, SPRR2D, CALML5, SBSN and KRTDAP” value [2] is on record?
**A.** The value was “expression inhibitions”.

**Q.** And the “effect on the differentiation of the keratinocytes” value [2]?
**A.** Its value is “anti differentiating effect”.

**Q.** And the “expression of the coding gene for fibrillin 1 (FBN1), fold change” value ([3]; 4 hours)?
**A.** The value was 3.27 X.

**Q.** And the “expression of the coding gene for fibrillin 1 (FBN1), fold change” value ([3]; 24 hours)?
**A.** Its value is 8.24 X.
